The text below walks through data of patent publication US10301284B2, “Therapeutic inhibitory compounds” (LifeSci Pharmaceuticals, Inc., priority 2016, dated 2019).

Chain of human Plasma Kallikrein (P03952 391-638 limits assumed): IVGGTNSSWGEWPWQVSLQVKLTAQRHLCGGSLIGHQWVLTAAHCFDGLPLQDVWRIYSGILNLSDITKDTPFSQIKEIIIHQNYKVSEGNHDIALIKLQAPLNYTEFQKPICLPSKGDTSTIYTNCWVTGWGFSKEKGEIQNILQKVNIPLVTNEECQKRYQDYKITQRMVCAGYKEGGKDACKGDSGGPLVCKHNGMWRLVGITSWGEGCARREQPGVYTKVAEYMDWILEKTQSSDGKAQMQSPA
Chain of human Plasma Kallikrein (P03952 20-390 partner limits assumed): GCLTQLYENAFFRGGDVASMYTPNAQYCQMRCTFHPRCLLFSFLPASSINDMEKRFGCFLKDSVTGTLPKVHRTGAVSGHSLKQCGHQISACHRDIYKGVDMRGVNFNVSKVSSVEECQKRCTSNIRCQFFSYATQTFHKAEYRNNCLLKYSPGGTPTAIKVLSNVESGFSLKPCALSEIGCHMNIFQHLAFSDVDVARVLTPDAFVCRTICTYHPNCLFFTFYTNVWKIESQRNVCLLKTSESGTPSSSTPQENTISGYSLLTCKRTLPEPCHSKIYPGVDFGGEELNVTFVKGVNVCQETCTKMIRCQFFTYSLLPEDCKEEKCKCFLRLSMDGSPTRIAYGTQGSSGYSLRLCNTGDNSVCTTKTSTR

The target of the experiment is human Plasma Kallikrein (Homo sapiens (Human), UniProt P03952). The experiment in a line: In vitro enzyme inhibition of human plasma kallikrein (Pro-Phe-Arg-AMC cleavage). The format is biochemical. The note with it: human plasma kallikrein, PFR-AMC substrate, 37° C.; read-out: hPK IC50. How it is done:
The ability of the compounds disclosed herein to inhibit human plasma kallikrein activity was quantified according to the procedures below.
A 10 mM solution of the test compound was made in DMSO. This solution was serially diluted 1:5 in DMSO to yield 2000, 400, 80, 16, 3.2, 0.64, 0.128, 0.0256 and 0.00512 μM compound test solutions. A control tube containing only DMSO is included. 16 μL of each compound test solution was combined with 384 μL of assay buffer (50 mM Tris-HCl pH 7.5, 150 mM NaCl, 0.01% Triton X-100) to yield a “4× test compound buffer stock”.
Separately, a 40 nM solution of human Plasma Kallikrein (Abcam) and a 93.6 μM solution Pro-Phe-Arg-AMC (Bachem) were made using assay buffer. These solutions are hereby referred to as 4×hPK and 2×PFR-AMC, respectively.
60 μL of each 4× test compound buffer stock was combined with 60 μL of 4×hPK to yield 120 μL of “2× test compound buffer stock/2×hPK”. 50 μL was removed from this mixture and placed into duplicate wells on a Microfluor 1Black U-bottom microtiter plate (Thermo Scientific). This plate was incubated for 5 minutes at 37° C. To each well, 50 μL of pre-warmed 2×PFR-AMC was added to start the enzymatic reaction. Cleavage of PFR-AMC was monitored in a Biotek Synergy H4 reader set at 37° C. Readings are taken every 43 seconds for 1 hour. The highest mean velocity over 20 reads (˜15 minutes) is used to calculate the IC50. The IC50 is calculated using the Gen5 (Biotek Instruments).
The ability of the compounds listed in Table 2 to inhibit human plasma kallikrein activity was determined.
A word on the IC50: it is the concentration at which inhibition is half-maximal. As to `Cc1cc(N)nc(C)c1CNC(=O)c1cn(Cc2ccc3ncc(Cl)cc3c2)c(C#N)n1` [Example 113, N-((6-amino-2,4-dimethylpyridin-3-yl)methyl)-1-((3-chloroquinolin-6-yl)methyl)-2-cyano-1H-imidazole-4-carboxamide], the concentration for half-maximal inhibition (IC50) was in the range of 100 to 1000 nM.

As to `Cc1cc(N)nc(C)c1CNC(=O)c1cc(C#N)nn1Cc1ccc2ncc(Cl)cc2c1` [Example 109, N-((6-amino-2,4-dimethylpyridin-3-yl)methyl)-1-((3-chloroquinolin-6-yl)methyl)-3-cyano-1H-pyrazole-5-carboxamide], the IC50 is more than 10000 nM. For `N#Cc1nn(Cc2ccc3ncc(Cl)cc3c2)cc1C(=O)NCc1ccc2[nH]cc(Cl)c2c1F` [Example 47, N-((3-chloro-4-fluoro-1H-indol-5-yl)methyl)-1-((3-chloroquinolin-6-yl)methyl)-3-cyano-1H-pyrazole-4-carboxamide], the IC50 is 100 to 1000 nM. For `Cc1cc(N)nc(C)c1CNC(=O)c1c(C(F)(F)F)nnn1Cc1ccc2ncc(Cl)cc2c1` [Example 141, N-((6-amino-2,4-dimethylpyridin-3-yl)methyl)-1-((3-chloroquinolin-6-yl)methyl)-4-(trifluoromethyl)-1H-1,2,3-triazole-5-carboxamide], the IC50 is more than 10000 nM. Consider `Cc1cc(N)nc(C)c1CNC(=O)c1nn(Cc2ccc3ncc(Cl)cc3c2)c2cc[nH]c(=O)c12` [Example 120, N-((6-amino-2,4-dimethylpyridin-3-yl)methyl)-1-((3-chloroquinolin-6-yl)methyl)-4-oxo-4,5-dihydro-1H-pyrazolo[4,3-c]pyridine-3-carboxamide], for which the IC50 was in the range of 1000 to 10000 nM. On to `Cc1cc(N)nc(C)c1CNC(=O)c1nn(Cc2ccc3ncc(Cl)cc3c2)cc1[N+](=O)[O-]` [Example 18, N-((6-amino-2,4-dimethylpyridin-3-yl)methyl)-1-((3-chloroquinolin-6-yl)methyl)-4-nitro-1H-pyrazole-3-carboxamide], for which the IC50 is less than 100 nM. Take `Cc1cc(N)nc(C)c1CNC(=O)c1cn(Cc2cc(S(N)(=O)=O)c3ncc(Cl)cc3c2)nc1C#N` [Example 60, N-((6-amino-2,4-dimethylpyridin-3-yl)methyl)-1-((3-chloro-8-sulfamoylquinolin-6-yl)methyl)-3-cyano-1H-pyrazole-4-carboxamide]: the half-maximal inhibitory concentration (IC50) was less than 100 nM. Turning to `Cc1nc(N)ccc1CNC(=O)c1cn(Cc2ccc3ncc(Cl)cc3c2)nc1C` [Example 85, N-((6-amino-2-methylpyridin-3-yl)methyl)-1-((3-chloroquinolin-6-yl)methyl)-3-methyl-1H-pyrazole-4-carboxamide], the IC50 was less than 100 nM. In the case of `Cc1cc(N)nc(C)c1CNC(=O)c1cn(Cc2ccc3ncc(Cl)cc3c2)c2ccnc(C#N)c12` [Example 133, N-((6-amino-2,4-dimethylpyridin-3-yl)methyl)-1-((3-chloroquinolin-6-yl)methyl)-4-cyano-1H-pyrrolo[3,2-c]pyridine-3-carboxamide], the IC50 is less than 100 nM. Regarding `Cc1cc(N)nc(C)c1CNC(=O)c1cnn(Cc2ccc3ncc(Cl)cc3c2)c1C#N` [Example 40, N-((6-amino-2,4-dimethylpyridin-3-yl)methyl)-1-((3-chloroquinolin-6-yl)methyl)-5-cyano-1H-pyrazole-4-carboxamide], the IC50 lay in the range of 1000 to 10000 nM.

For the compound `Cc1cc(N)nc(C)c1CNC(=O)c1nn(Cc2ccc3ncc(Cl)cc3c2)c2c[nH]c(=O)cc12` [Example 124, N-((6-amino-2,4-dimethylpyridin-3-yl)methyl)-1-((3-chloroquinolin-6-yl)methyl)-5-oxo-5,6-dihydro-1H-pyrazolo[3,4-c]pyridine-3-carboxamide], the IC50 was 100 to 1000 nM. `Cc1cc(N)nc(C)c1CNC(=O)c1cnn(Cc2cc(F)c3ncc(Cl)cc3c2)c1C#N` [Example 70, N-((6-amino-2,4-dimethylpyridin-3-yl)methyl)-1-((3-chloro-8-fluoroquinolin-6-yl)methyl)-5-cyano-1H-pyrazole-4-carboxamide]: the IC50 was more than 10000 nM.

Consider `Cc1cc(N)nc(C)c1CNC(=O)c1cn(Cc2cc(S(C)(=O)=O)c3ncc(Cl)cc3c2)nc1C#N` [Example 68, N-((6-amino-2,4-dimethylpyridin-3-yl)methyl)-1-((3-chloro-8-(methylsulfonyl)quinolin-6-yl)methyl)-3-cyano-1H-pyrazole-4-carboxamide], for which the 50% inhibitory concentration (IC50) is less than 100 nM. `Cc1cc(N)nc(C)c1CNC(=O)c1c2c(N)cccc2nn1Cc1ccc2ncc(Cl)cc2c1` [Example 140, 4-amino-N-((6-amino-2,4-dimethylpyridin-3-yl)methyl)-2-((3-chloroquinolin-6-yl)methyl)-2H-indazole-3-carboxamide]: the IC50 is more than 10000 nM. For `N#Cc1nn(Cc2cc(F)c3ncc(Cl)cc3c2)cc1C(=O)NCc1n[nH]c2ccc(Cl)cc12` [Example 55, N-((5-chloro-1H-indazol-3-yl)methyl)-1-((3-chloro-8-fluoroquinolin-6-yl)methyl)-3-cyano-1H-pyrazole-4-carboxamide], the 50% inhibitory concentration (IC50) was in the range of 100 to 1000 nM. Regarding `Cc1nc(N)ccc1CNC(=O)c1cn(Cc2ccc3ncc(Cl)cc3c2)nc1C#N` [Example 77, N-((6-amino-2-methylpyridin-3-yl)methyl)-1-((3-chloroquinolin-6-yl)methyl)-3-cyano-1H-pyrazole-4-carboxamide], the IC50 is less than 100 nM. The figure for `Cc1cc(N)nc(C)c1CNC(=O)c1cn(Cc2ccc3ncc(Cl)cc3c2)c2cc[nH]c(=O)c12` [Example 118, N-((6-amino-2,4-dimethylpyridin-3-yl)methyl)-1-((3-chloroquinolin-6-yl)methyl)-4-oxo-4,5-dihydro-1H-pyrrolo[3,2-c]pyridine-3-carboxamide] is more than 10000 nM. Regarding `CCOC(=O)c1nc(C(=O)NCc2c(C)cc(N)nc2C)nn1Cc1ccc2ncc(Cl)cc2c1` [Example 142, ethyl 3-(((6-amino-2,4-dimethylpyridin-3-yl)methyl)carbamoyl)-1-((3-chloroquinolin-6-yl)methyl)-1H-1,2,4-triazole-5-carboxylate], the 50% inhibitory concentration (IC50) is more than 10000 nM. Turning to `Cc1cc(N)nc(C)c1CNC(=O)c1nc(Cc2ccc3ncc(Cl)cc3c2)nn1C` [Example 99, N-((6-amino-2,4-dimethylpyridin-3-yl)methyl)-3-((3-chloroquinolin-6-yl)methyl)-1-methyl-1H-1,2,4-triazole-5-carboxamide], the IC50 is less than 100 nM. On to `Cc1nc(N)ccc1CNC(=O)c1cnc(Cc2ccc3ncc(Cl)cc3c2)o1` [Example 90, N-((6-amino-2-methylpyridin-3-yl)methyl)-2-((3-chloroquinolin-6-yl)methyl)oxazole-5-carboxamide], for which the half-maximal inhibitory concentration (IC50) was less than 100 nM. Regarding `Cc1cc(N)nc(C)c1CNC(=O)c1cc(C#N)n(Cc2ccc3ncc(Cl)cc3c2)n1` [Example 108, N-((6-amino-2,4-dimethylpyridin-3-yl)methyl)-1-((3-chloroquinolin-6-yl)methyl)-5-cyano-1H-pyrazole-3-carboxamide], the 50% inhibitory concentration (IC50) was in the range of 100 to 1000 nM. The figure for `COC(=O)c1nc(C(=O)NCc2c(C)cc(N)nc2C)nn1Cc1ccc2ncc(Cl)cc2c1` [Example 102, methyl 3-(((6-amino-2,4-dimethylpyridin-3-yl)methyl)carbamoyl)-1-((3-chloroquinolin-6-yl)methyl)-1H-1,2,4-triazole-5-carboxylate] is more than 10000 nM.
